The test system of the assay is B6C3F1 mice, B16 melanoma ip, median survival T/C. In words: NCI In Vivo Anticancer Drug Screen. Data for tumor model B16 Melanoma (intraperitoneal) in B6C3F1 mice. The conditions noted are these: endpoint: median survival time, higher = longer survival. Summed up: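 Antitumor effect was judged in mice with transplanted tumors by dividing the treated group's survival measure by that of vehicle controls.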

Where [1] appears, read: dose: 50.0 mg/kg/injection, schedule: Q01DX009 (ip), vehicle: saline.
The mark [2] stands for this setting: dose: 100.0 mg/kg/injection, schedule: Q01DX009 (ip), vehicle: saline.
Setting [3] is: dose: 200.0 mg/kg/injection, schedule: Q01DX009 (ip), vehicle: saline.
The mark [4] stands for this setting: dose: 0.25 mg/kg/injection, schedule: Q01DX009 (ip), vehicle: saline.
Where [5] appears, read: dose: 6.25 mg/kg/injection, schedule: Q01DX009 (ip), vehicle: Klucel (hydroxypropylcellulose) (HPC).
[6] abbreviates: dose: 12.5 mg/kg/injection, schedule: Q01DX009 (ip), vehicle: Klucel (hydroxypropylcellulose) (HPC).
Setting [7] is: dose: 25.0 mg/kg/injection, schedule: Q01DX009 (ip), vehicle: Klucel (hydroxypropylcellulose) (HPC).
Setting [8] is: dose: 100.0 mg/kg/injection, schedule: Q01DX009 (ip), vehicle: saline with Tween-80.
[9] abbreviates: dose: 200.0 mg/kg/injection, schedule: Q01DX009 (ip), vehicle: saline with Tween-80.
[10] abbreviates: dose: 400.0 mg/kg/injection, schedule: Q01DX009 (ip), vehicle: saline with Tween-80.

Each structure is given as a SMILES string. “And” between values parts separate entries of the source, which are not always exact repeats. Equal values may be shown once. Toxic doses and inconclusive results are not listed. *1 amine or outer side, *2 acyl side, *3 side chain or, on linkers, in order; H or OH if unused. Where a SMILES comes first, the peptide text is derived from it. [ ]: non-standard residue; d: D form. The star is where a group is joined. X3 = CCC(=O)CC1CC(C)CC(C(=O)[*:2])N1[*:1]; X2 = CCCCCCCCC(C)C(=O)*; Aib = CC(C)(N)C(=O)O; X4 = CC(CN(C)CCO)N*

Experimental findings from PubChem BioAssay AID200 (DTP/NCI, 2004) are described below.

As for `CN(C)[C@@H]1C(=O)C(C(=O)NCN2CCN(C(=N)N=C(N)N)CC2)=C(O)[C@@]2(O)C(=O)C3=C(O)c4c(O)cccc4[C@@](C)(O)[C@H]3C[C@@H]12`, the T/C reads like this: (dose: 0.31 mg/kg/injection, schedule: Q01DX009 (ip), vehicle: saline) 94 % of control; (dose: 0.62 mg/kg/injection, schedule: Q01DX009 (ip), vehicle: saline) 98 % of control; (dose: 1.25 mg/kg/injection, schedule: Q01DX009 (ip), vehicle: saline) 111 % of control and 103 % of control; (dose: 2.5 mg/kg/injection, schedule: Q01DX009 (ip), vehicle: saline) 90 % of control and 103 % of control; (dose: 5.0 mg/kg/injection, schedule: Q01DX009 (ip), vehicle: saline) 101 % of control and 103 % of control.

`c1ccc(CN2CCOC2)cc1`: the T/C was 100 % of control and 101 % of control (dose: 12.5 mg/kg/injection, schedule: Q01DX009 (ip), vehicle: saline); 101 % of control and 108 % of control (dose: 25.0 mg/kg/injection, schedule: Q01DX009 (ip), vehicle: saline); 98 % of control and 102 % of control under setting [1]; 112 % of control and 102 % of control under setting [2]; 113 % of control under setting [3].

Regarding `O=C1N[C@@H]([C@H]2CC[C@H](Cl)CN2)C(=O)N[C@H]1[C@H]1CC[C@H](Cl)CN1`, the T/C by setting is: (dose: 0.25 mg/kg/injection, schedule: Q01DX005 (ip), vehicle: saline) 99 % of control; (dose: 0.25 mg/kg/injection, schedule: Q01DX005 (iv), vehicle: saline) 105 % of control; under setting [4], 107 % of control; (dose: 0.5 mg/kg/injection, schedule: Q01DX005 (ip), vehicle: saline) 100 % of control; (dose: 0.5 mg/kg/injection, schedule: Q01DX005 (iv), vehicle: saline) 95 % of control; (dose: 0.5 mg/kg/injection, schedule: Q01DX005 (oral), vehicle: saline) 96 % of control. Further, the T/C is 97 % of control (dose: 0.5 mg/kg/injection, schedule: Q04DX003 (ip), vehicle: saline); 124 % of control (dose: 1.0 mg/kg/injection, schedule: Q01DX005 (ip), vehicle: saline); 99 % of control (dose: 1.0 mg/kg/injection, schedule: Q01DX005 (iv), vehicle: saline); 99 % of control (dose: 1.0 mg/kg/injection, schedule: Q01DX005 (oral), vehicle: saline); 103 % of control (dose: 1.0 mg/kg/injection, schedule: Q04DX003 (ip), vehicle: saline); 108 % of control (dose: 2.0 mg/kg/injection, schedule: Q01DX005 (iv), vehicle: saline). Also, the T/C by setting is: (dose: 2.0 mg/kg/injection, schedule: Q01DX005 (oral), vehicle: saline) 115 % of control; (dose: 2.0 mg/kg/injection, schedule: Q04DX003 (ip), vehicle: saline) 108 % of control; (dose: 4.0 mg/kg/injection, schedule: Q01DX005 (ip), vehicle: saline) 183 % of control; (dose: 4.0 mg/kg/injection, schedule: Q01DX005 (iv), vehicle: saline) 120 % of control; (dose: 4.0 mg/kg/injection, schedule: Q01DX005 (oral), vehicle: saline) 110 % of control; (dose: 4.0 mg/kg/injection, schedule: Q04DX003 (ip), vehicle: saline) 112 % of control.

Turning to `CC1(C)CC(=O)C(CSC(=O)c2ccccc2)C(=O)C1`, the T/C by setting is: (dose: 1.56 mg/kg/injection, schedule: Q01DX009 (ip), vehicle: Klucel (hydroxypropylcellulose) (HPC)) 94 % of control; (dose: 3.12 mg/kg/injection, schedule: Q01DX009 (ip), vehicle: Klucel (hydroxypropylcellulose) (HPC)) 97 % of control and 99 % of control; under setting [5], 98 % of control; under setting [6], 93 % of control.

As for `CN(C)N=Nc1cccc(C(N)=O)c1`, the T/C by setting is: under setting [1], 119 % of control; under setting [2], 67 % of control.

`O=C(O)C1C2CC3C(C2)C31.[Ag]` (centres undefined): the T/C reads like this: under setting [5], 90 % of control; under setting [6], 88 % of control; under setting [7], 100 % of control.

Consider `CCCCCCCCC(C)C(=O)N1CCCC1C(=O)N1C(CC(=O)CC)CC(C)CC1C(=O)NC(C)C(=O)NC(C)(C)C(=O)NC(C)(C)C(=O)NC(C(=O)NC(C)C(=O)NC(C)(C)C(=O)NC(C)(C)C(=O)NC(C)CN(C)CCO)C(C)CC` (centres undefined) (X2-P[X3]A[Aib][Aib]IA[Aib][Aib]-X4; configuration not given here), for which the T/C is 98 % of control (dose: 0.15 mg/kg/injection, schedule: Q01DX009 (ip), vehicle: Klucel (hydroxypropylcellulose) (HPC)); 91 % of control (dose: 0.31 mg/kg/injection, schedule: Q01DX009 (ip), vehicle: Klucel (hydroxypropylcellulose) (HPC)); 97 % of control (dose: 0.62 mg/kg/injection, schedule: Q01DX009 (ip), vehicle: Klucel (hydroxypropylcellulose) (HPC)); 89 % of control (dose: 1.25 mg/kg/injection, schedule: Q01DX009 (ip), vehicle: Klucel (hydroxypropylcellulose) (HPC)); 92 % of control (dose: 2.5 mg/kg/injection, schedule: Q01DX009 (ip), vehicle: Klucel (hydroxypropylcellulose) (HPC)); 86 % of control (dose: 5.0 mg/kg/injection, schedule: Q01DX009 (ip), vehicle: Klucel (hydroxypropylcellulose) (HPC)).

Consider `CCCCCCCCCCCCCCCCCC1=NC(C)CC(C)(C)O1` (centres undefined), for which the T/C is, setting by setting: under setting [1], 96 % of control; under setting [2], 94 % of control; under setting [3], 94 % of control.

As to `CC1=C(CCC(=O)O)c2cc3nc(cc4[nH]c(cc5[nH]c(cc1n2)c(C)c5C(C)O)c(C)c4C(C)O)C(C)=C3CCC(=O)O` (centres undefined), the T/C (dose: 3.13 mg/kg/injection, schedule: Q01DX009 (ip), vehicle: Klucel (hydroxypropylcellulose) (HPC)) was 111 % of control; the T/C under setting [5] is 115 % of control; the T/C under setting [6] is 107 % of control; the T/C under setting [7] is 104 % of control.

As for `OCC1OC(n2cnc3c2NC=NC[C@H]3O)CC1O` (some centres undefined), the T/C is, setting by setting: (dose: 0.13 mg/kg/injection, schedule: Q01DX009 (ip), vehicle: saline) 84 % of control; under setting [4], 78 % of control; (dose: 0.5 mg/kg/injection, schedule: Q01DX009 (ip), vehicle: saline) 96 % of control.

Turning to `C/C=C1\C[C@@H]2C(OC)Nc3cc(O)c(OC)cc3C(=O)N2C1` (some centres undefined), the T/C runs as follows: (dose: 0.03 mg/kg/injection, schedule: Q01DX009 (ip), vehicle: suspension in saline) 103 % of control; (dose: 0.06 mg/kg/injection, schedule: Q01DX009 (ip), vehicle: suspension in saline) 109 % of control; (dose: 0.12 mg/kg/injection, schedule: Q01DX009 (ip), vehicle: suspension in saline) 106 % of control.

Consider `O=C(NCc1ccccc1)c1cccnc1`, for which the T/C was 94 % of control under setting [8], 94 % of control under setting [9] and 93 % of control under setting [10].

`CCN1C[C@]2(COC)[C@H](O)C[C@H](OC)[C@]34C1[C@H]([C@H](OC)[C@H]23)[C@]1(OC(C)=O)[C@H]2[C@@H](OC(=O)c3ccccc3)[C@](O)(C[C@H]24)[C@@H](OC)[C@@H]1O`: the T/C (dose: 7.5 micrograms/kg/injection, schedule: Q01DX009 (ip), vehicle: saline) is 118 % of control; the T/C (dose: 15.0 micrograms/kg/injection, schedule: Q01DX009 (ip), vehicle: saline) is 115 % of control; the T/C (dose: 30.0 micrograms/kg/injection, schedule: Q01DX009 (ip), vehicle: saline) is 99 % of control; the T/C (dose: 60.0 micrograms/kg/injection, schedule: Q01DX009 (ip), vehicle: saline) is 122 % of control.

`CNC(=O)Oc1ccc[nH]c1=O`: the T/C is, setting by setting: (dose: 16.0 mg/kg/injection, schedule: Q01DX009 (ip), vehicle: saline with Tween-80) 101 % of control; (dose: 32.0 mg/kg/injection, schedule: Q01DX009 (ip), vehicle: saline with Tween-80) 100 % of control; (dose: 64.0 mg/kg/injection, schedule: Q01DX009 (ip), vehicle: saline with Tween-80) 101 % of control; (dose: 128.0 mg/kg/injection, schedule: Q01DX009 (ip), vehicle: saline with Tween-80) 100 % of control; (dose: 256.0 mg/kg/injection, schedule: Q01DX009 (ip), vehicle: saline with Tween-80) 95 % of control.

`CC(=O)Nc1ccc(O)c(O)c1`: the T/C is 109 % of control and 112 % of control (dose: 12.5 mg/kg/injection, schedule: Q01DX009 (ip), vehicle: saline with Tween-80); 114 % of control and 117 % of control (dose: 25.0 mg/kg/injection, schedule: Q01DX009 (ip), vehicle: saline with Tween-80); 104 % of control and 105 % of control (dose: 50.0 mg/kg/injection, schedule: Q01DX009 (ip), vehicle: saline with Tween-80); 113 % of control and 101 % of control under setting [8]; 113 % of control and 106 % of control under setting [9]; 122 % of control and 106 % of control under setting [10].
